The target of experiment [1] is T1, Lyn (h) (Homo sapiens, UniProt P07948).
T1 construct: Eurofins KinaseProfiler enzyme
The experiment can be described thus: radiometric kinase assay ([gamma-33P]-ATP, filter binding), 9-point dilution. Type of experiment: biochemical. The text has this: radiometric kinase assay ([gamma-33P]-ATP, filter binding), 9-point dilution on Lyn (h)

In experiment [2] the target is T2, Fyn (h) (Homo sapiens, UniProt P06241).
T2 construct: Eurofins KinaseProfiler enzyme
The experiment is described as above. Type of experiment: biochemical. An excerpt:
radiometric kinase assay ([gamma-33P]-ATP, filter binding), 9-point dilution on Fyn (h)

Each structure is given as a SMILES string.

T2 sequence (P06241 2-537): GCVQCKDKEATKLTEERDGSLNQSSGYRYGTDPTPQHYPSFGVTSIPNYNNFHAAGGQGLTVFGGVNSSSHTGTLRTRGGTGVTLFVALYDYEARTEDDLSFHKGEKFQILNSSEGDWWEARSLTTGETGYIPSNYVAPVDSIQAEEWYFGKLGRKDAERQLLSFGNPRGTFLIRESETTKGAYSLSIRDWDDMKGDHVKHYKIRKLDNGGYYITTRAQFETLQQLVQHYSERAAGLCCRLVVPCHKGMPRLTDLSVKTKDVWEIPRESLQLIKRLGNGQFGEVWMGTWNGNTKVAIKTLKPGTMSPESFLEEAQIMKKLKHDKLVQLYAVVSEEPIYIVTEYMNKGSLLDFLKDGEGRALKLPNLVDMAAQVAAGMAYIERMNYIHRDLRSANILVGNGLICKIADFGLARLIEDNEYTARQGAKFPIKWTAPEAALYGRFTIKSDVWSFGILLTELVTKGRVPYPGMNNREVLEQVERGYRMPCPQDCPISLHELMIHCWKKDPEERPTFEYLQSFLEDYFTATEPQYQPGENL
T1 sequence (P07948 2-512): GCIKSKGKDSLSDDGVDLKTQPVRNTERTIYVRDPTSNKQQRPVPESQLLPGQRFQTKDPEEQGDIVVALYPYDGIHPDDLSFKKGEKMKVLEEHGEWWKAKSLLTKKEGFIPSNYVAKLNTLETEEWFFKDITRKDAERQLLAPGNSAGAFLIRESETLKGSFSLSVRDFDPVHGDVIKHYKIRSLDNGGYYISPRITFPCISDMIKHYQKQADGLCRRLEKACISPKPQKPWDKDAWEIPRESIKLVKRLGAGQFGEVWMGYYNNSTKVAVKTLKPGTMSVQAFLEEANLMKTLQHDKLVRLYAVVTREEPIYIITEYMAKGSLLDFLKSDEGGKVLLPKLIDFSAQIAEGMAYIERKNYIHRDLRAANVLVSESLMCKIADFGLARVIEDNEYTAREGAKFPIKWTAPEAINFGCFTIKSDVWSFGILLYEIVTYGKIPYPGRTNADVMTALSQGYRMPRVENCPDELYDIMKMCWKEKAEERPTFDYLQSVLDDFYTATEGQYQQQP

The term IC50 denotes the concentration at which inhibition is half-maximal. Lower therefore signals inhibition by little substance. Take `COc1cc(O)c2c(=O)c(-c3ccc(O[C@@H]4O[C@H](CO)[C@@H](O)[C@H](O)[C@H]4O)cc3)coc2c1` [compound 1]: the IC50 was found to be 4.39 µM in experiment [1] and 8.66 µM in experiment [2].

The values above are taken from article PMC12458683, “Water-Based Pharmacophore Modeling in Kinase Inhibitor Design: A Case Study on Fyn and Lyn Protein Kinases” (Journal of Chemical Information and Modeling, 2025).
